Measurements as given in US20240158446A1, “CYCLIC COMPOUND HAVING SELECTIVE INHIBITORY ACTION ON KRAS OVER HRAS AND NRAS” (CHUGAI SEIYAKU KABUSHIKI KAISHA, priority 2021, published 2024).
Like-named read-outs stand apart in the source and are kept apart here.

Tests used:
[1] = biological target: GDP-bound KRAS wild-type protein (Homo sapiens, UniProt P01116); assay: Binding to KRAS by surface plasmon resonance (SPR), Single Cycle Kinetics; conditions: GDP-bound KRAS wild-type protein, read-out: KRAS KD
GDP-bound KRAS wild-type protein, sequence (P01116 whole entry): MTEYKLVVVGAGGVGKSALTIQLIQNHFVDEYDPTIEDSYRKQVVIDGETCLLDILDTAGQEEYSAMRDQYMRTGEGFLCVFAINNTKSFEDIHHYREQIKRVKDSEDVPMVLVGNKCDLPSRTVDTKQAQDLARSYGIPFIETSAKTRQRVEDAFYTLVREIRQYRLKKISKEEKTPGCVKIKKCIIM

[2] = biological target: GDP-bound NRAS wild-type protein (Homo sapiens, UniProt P01111); assay: Binding to NRAS by surface plasmon resonance (SPR), Single Cycle Kinetics; conditions: for NRAS/KRAS (ratio of KD value with respect to GDP-bound NRAS wild-type protein to KD value with respect to KRAS): SPR KD ratio NRAS/KRAS, class symbols; for NRAS/KRAS (ratio of KD value with respect to NRAS to KD value with respect to KRAS) / NRAS/KRAS (ratio of KD value for NRAS to KD value for KRAS): SPR, GDP-bound NRAS wild-type protein vs GDP-bound KRAS wild-type protein
GDP-bound NRAS wild-type protein, sequence (P01111 whole entry): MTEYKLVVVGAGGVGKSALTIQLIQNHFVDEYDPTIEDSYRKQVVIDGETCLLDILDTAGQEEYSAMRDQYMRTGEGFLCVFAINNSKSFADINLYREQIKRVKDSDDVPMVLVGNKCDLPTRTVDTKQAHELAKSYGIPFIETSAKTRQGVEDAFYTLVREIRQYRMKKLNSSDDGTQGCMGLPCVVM

[3] = biological target: GDP-bound HRAS wild-type protein (Homo sapiens, UniProt P01112); assay: Binding to HRAS by surface plasmon resonance (SPR), Single Cycle Kinetics; conditions: for HRAS/KRAS (ratio of KD value with respect to GDP-bound HRAS wild-type protein to KD value with respect to KRAS): SPR KD ratio HRAS/KRAS, class symbols; for HRAS/KRAS (ratio of KD value with respect to HRAS to KD value with respect to KRAS) / HRAS/KRAS (ratio of KD value for HRAS to KD value for KRAS): SPR, GDP-bound HRAS wild-type protein vs GDP-bound KRAS wild-type protein
GDP-bound HRAS wild-type protein, sequence (P01112 whole entry): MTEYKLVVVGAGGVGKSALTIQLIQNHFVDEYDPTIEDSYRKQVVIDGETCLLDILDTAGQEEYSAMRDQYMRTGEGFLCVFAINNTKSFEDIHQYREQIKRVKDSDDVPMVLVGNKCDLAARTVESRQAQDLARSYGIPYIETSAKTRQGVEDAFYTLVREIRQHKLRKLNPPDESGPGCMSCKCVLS

[4] = SPR Single Cycle Kinetics, 1:1 binding model
[5] = SPR, Single Cycle Kinetics, 1:1 binding model

SMILES | Kd [1, 4] [nM] | Kd ([1]; SPR, Single Cycle Kinetics) [nM] | NRAS/KRAS (ratio of KD value with respect to NRAS to KD value with respect to KRAS) [2] | HRAS/KRAS (ratio of KD value with respect to HRAS to KD value with respect to KRAS) [3] | NRAS/KRAS (ratio of KD value for NRAS to KD value for KRAS) [2] | HRAS/KRAS (ratio of KD value for HRAS to KD value for KRAS) [3] | further results
CCO[C@@H]1C[C@H]2C(=O)NC3(CCC3)C(=O)N(C)[C@@H](C3CCCC3)C(=O)N(C)[C@H](C(=O)N(C)C)CC(=O)N(C)[C@@H](CC3CCCC3)C(=O)N[C@@H]([C@@H](C)CC)C(=O)N(C)CC(=O)N(C)[C@H]3C/C=C\CCN(C3=O)[C@@H](Cc3ccc(C)cc3)C(=O)N(C)CC(=O)N[C@@H](CCc3ccc(C4CC4)c(C)c3)C(=O)N2C1 [PP2685] | 2.1 |  |  |  |  |  | NRAS/KRAS (ratio of KD value with respect to GDP-bound NRAS wild-type protein to KD value with respect to KRAS) [2]: A (a compound having 10 or more and less than 20 is denoted as A); HRAS/KRAS (ratio of KD value with respect to GDP-bound HRAS wild-type protein to KD value with respect to KRAS) [3]: A (a compound having 10 or more and less than 20 is denoted as A)
CCO[C@@H]1C[C@H]2C(=O)NC3(CC(C)(C)C3)C(=O)N(C)[C@@H](C(CC)CC)C(=O)N(C)[C@H](C(=O)N(C)C)CC(=O)N(C)[C@@H](CC3CCC3)C(=O)N[C@@H]([C@@H](C)CC)C(=O)N(C)CC(=O)N(C)[C@H]3C/C=C\CCN(C3=O)[C@@H](Cc3ccc(C(F)(F)F)cc3)C(=O)N(C)CC(=O)N[C@@H](CCc3ccc(C(F)(F)F)c(OC)c3)C(=O)N2C1 [PP2164] |  | 0.29 |  |  | A (a compound having 10 or more and less than 20 is denoted as A) | A (a compound having 10 or more and less than 20 is denoted as A) | 
CCC[C@H]1C(=O)N[C@@H]([C@@H](C)CC)C(=O)N(C)CC(=O)N(C)[C@H]2C/C=C\CCN(C2=O)[C@@H](Cc2ccc(C(F)(F)F)cc2)C(=O)N(C)CC(=O)N[C@@H](CCc2ccc3ccn(C)c3c2)C(=O)N2C[C@H](OCC)C[C@H]2C(=O)NC2(CC(C)(C)C2)C(=O)N(C)[C@@H](C2CCCC2)C(=O)N(C)[C@H](C(=O)N(C)C)CC(=O)N1C [PP2901] | 3.1 |  |  |  |  |  | NRAS/KRAS (ratio of KD value with respect to GDP-bound NRAS wild-type protein to KD value with respect to KRAS) [2]: A (a compound having 10 or more and less than 20 is denoted as A); HRAS/KRAS (ratio of KD value with respect to GDP-bound HRAS wild-type protein to KD value with respect to KRAS) [3]: A (a compound having 10 or more and less than 20 is denoted as A)
CCCOC[C@H]1C(=O)N[C@@H]([C@@H](C)CC)C(=O)N(C2CC2)CC(=O)N(C)[C@H]2C/C=C\CCN(C2=O)[C@@H](Cc2ccc(C)cc2)C(=O)N(C)CC(=O)N[C@@H](CCc2ccc(C(F)(F)F)c(OC)c2)C(=O)N2C[C@H](OCC)C[C@H]2C(=O)N(C)C2(CCC2)C(=O)N(C)[C@@H](C2CCCC2)C(=O)N(C)[C@H](C(=O)N(C)C)CC(=O)N1C [PP2330] |  | 0.11 |  |  | A (a compound having 10 or more and less than 20 is denoted as A) | A (a compound having 10 or more and less than 20 is denoted as A) | 
CC[C@H](C)[C@@H]1NC(=O)[C@H](CC)N(C)C(=O)C[C@@H](C(=O)N(C)C)N(C)C(=O)[C@H](C2CCCC2)N(C)C(=O)C2(CCC2)NC(=O)[C@@H]2C[C@H](N3CCC(F)(F)CC3)CN2C(=O)[C@H](CCc2cc(F)c(C(F)(F)F)c(F)c2)NC(=O)CN(C)C(=O)[C@H](Cc2ccc(C(F)(F)F)cc2)N2CCCCC[C@@H](C2=O)N(C)C(=O)CN(C)C1=O [PP0731] | 1.6 |  | B (a compound having 3 or more and less than 10 is denoted as B) | B (a compound having 3 or more and less than 10 is denoted as B) |  |  | 
CC[C@H](C)[C@@H]1NC(=O)[C@H](CC2CC2)N(C)C(=O)C[C@@H](C(=O)N(C)C)N(C)C(=O)[C@H](C2CCCC2)N(C)C(=O)C2(CC(C)(C)C2)NC(=O)[C@@H]2C[C@@H](C(F)(F)F)CN2C(=O)[C@H](CCc2cc(F)c(C(F)(F)F)c(F)c2)NC(=O)CN(C)C(=O)[C@H](Cc2ccc(C(F)(F)F)cc2)N2CC/C=C\C[C@@H](C2=O)N(C)C(=O)CN(C)C1=O [PP1504] |  |  |  |  |  |  | Kd [1, 5]: 0.32 nM; NRAS/KRAS (ratio of KD value for NRAS to KD value for KRAS) ([2]; KD ratio class): A (a compound having 10 or more and less than 20 is denoted as A); HRAS/KRAS (ratio of KD value for HRAS to KD value for KRAS) ([3]; KD ratio class): A (a compound having 10 or more and less than 20 is denoted as A)
CCO[C@@H]1C[C@H]2C(=O)NC3(CCC3)C(=O)N(C)[C@@H](C(CC)CC)C(=O)N(C)[C@H](C(=O)N3CCOCC3)CC(=O)N(C)[C@@H](CC3CC3)C(=O)N[C@@H]([C@@H](C)CC)C(=O)N(C)CC(=O)N(C)[C@H]3C/C=C\CCN(C3=O)[C@@H](Cc3ccc(F)cc3C)C(=O)N(C)CC(=O)N[C@@H](CCc3cc(F)c(C(F)(F)F)c(F)c3)C(=O)N2C1 [PP1526] |  |  |  |  |  |  | Kd [1, 5]: 1.3 nM; NRAS/KRAS (ratio of KD value for NRAS to KD value for KRAS) ([2]; KD ratio class): A (a compound having 10 or more and less than 20 is denoted as A); HRAS/KRAS (ratio of KD value for HRAS to KD value for KRAS) ([3]; KD ratio class): A (a compound having 10 or more and less than 20 is denoted as A)

Further lines, with some results ahead:

Kd [1, 4] [nM] | Kd ([1]; SPR, Single Cycle Kinetics) [nM] | SMILES | NRAS/KRAS (ratio of KD value with respect to NRAS to KD value with respect to KRAS) [2] | HRAS/KRAS (ratio of KD value with respect to HRAS to KD value with respect to KRAS) [3] | NRAS/KRAS (ratio of KD value for NRAS to KD value for KRAS) [2] | HRAS/KRAS (ratio of KD value for HRAS to KD value for KRAS) [3] | further results
1.1 |  | CC[C@H](C)[C@@H]1NC(=O)[C@H](CC(C)C)N(C)C(=O)C[C@@H](C(=O)N2CCOCC2)N(C)C(=O)[C@H](C2CCCC2)N(C)C(=O)C2(CCCC2)NC(=O)[C@@H]2CC(F)(F)CN2C(=O)[C@H](CCc2cc(F)c(C(F)(F)F)c(F)c2)NC(=O)CN(C)C(=O)[C@H](Cc2ccc(C(F)(F)F)cc2)N2CCCCC[C@@H](C2=O)N(C)C(=O)CN(C)C1=O [PP0491] | B (a compound having 3 or more and less than 10 is denoted as B) | B (a compound having 3 or more and less than 10 is denoted as B) |  |  | 
0.52 |  | C#CC[C@H]1C(=O)N[C@@H]([C@@H](C)CC)C(=O)N(C)CC(=O)N(C)[C@H]2C/C=C\CCN(C2=O)[C@@H](Cc2ccc(C(F)(F)F)cc2)C(=O)N(C)CC(=O)N[C@@H](CCc2ccc(C(F)(F)F)c(OC)c2)C(=O)N2CC[C@H]2C(=O)NC2(CCC2)C(=O)N(C)[C@@H](C2CCCC2)C(=O)N(C)[C@H](C(=O)N(C)C)CC(=O)N1C [PP2911] |  |  |  |  | NRAS/KRAS (ratio of KD value with respect to GDP-bound NRAS wild-type protein to KD value with respect to KRAS) [2]: A (a compound having 10 or more and less than 20 is denoted as A); HRAS/KRAS (ratio of KD value with respect to GDP-bound HRAS wild-type protein to KD value with respect to KRAS) [3]: B (a compound having 3 or more and less than 10 is denoted as B)
 | 0.51 | CCO[C@@H]1C[C@H]2C(=O)NC3(CC(C)(C)C3)C(=O)N(C)[C@@H](C(CC)CC)C(=O)N(C)[C@H](C(=O)N(C)C)CC(=O)N(C)[C@@H](C(C)C)C(=O)N[C@@H]([C@@H](C)CC)C(=O)N(C)CC(=O)N(C)[C@H]3C/C=C\CCN(C3=O)[C@@H](Cc3ccc(C(F)(F)F)cc3)C(=O)N(C)CC(=O)N[C@@H](CCc3ccc(C(F)(F)F)c(OC)c3)C(=O)N2C1 [PP2165] |  |  | A (a compound having 10 or more and less than 20 is denoted as A) | A (a compound having 10 or more and less than 20 is denoted as A) | 
0.026 |  | CCO[C@@H]1C[C@H]2C(=O)NC3(CCC3)C(=O)N(C)[C@@H](C3CCCC3)C(=O)N(C)[C@H](C(=O)N3CCOCC3)CC(=O)N(C)[C@@H](CC)C(=O)N[C@@H]([C@@H](C)CC)C(=O)N(C)CC(=O)N(C)[C@H]3CCCCN(C3=O)[C@@H](Cc3ccc(C(F)(F)F)cc3)C(=O)N(C)CC(=O)N[C@@H](CCc3cc(F)c(C(F)(F)F)c(F)c3)C(=O)N2C1 [PP0708] | B (a compound having 3 or more and less than 10 is denoted as B) | B (a compound having 3 or more and less than 10 is denoted as B) |  |  | 
28 |  | CC[C@H](C)[C@@H]1NC(=O)[C@H](CC(C)C)N(C)C(=O)C[C@@H](C(=O)N2CCOCC2)N(C)C(=O)[C@H](C2CCCC2)N(C)C(=O)C2(CCCC2)NC(=O)[C@@H]2CCCN2C(=O)[C@H](CCc2cc(F)c(C(F)(F)F)c(F)c2)NC(=O)CN(C)C(=O)[C@H](Cc2ccc(C(F)(F)F)cc2)N2CCCCC[C@@H](C2=O)N(C)C(=O)[C@@H]2CCCN2C1=O [PP0485] | A (a compound having 10 or more and less than 20 is denoted as A) | B (a compound having 3 or more and less than 10 is denoted as B) |  |  | 
 | 0.23 | CC[C@H](C)[C@@H]1NC(=O)[C@H](CC(C)C)N(C)C(=O)C[C@@H](C(=O)N2CCOCC2)N(C)C(=O)[C@H](C2CCCC2)N(C)C(=O)C2(CCCC2)NC(=O)[C@@H]2CC(F)(F)CN2C(=O)[C@H](CCc2ccc(C(F)(F)F)c(Cl)c2)NC(=O)CN(C)C(=O)[C@H](Cc2ccc(F)cc2)N2CCCCC[C@@H](C2=O)N(C)C(=O)CN(C)C1=O [PP0966] |  |  | B (a compound having 3 or more and less than 10 is denoted as B) | B (a compound having 3 or more and less than 10 is denoted as B) | 
